Results published in patent US5491220A, “Surface loop structural analogues of fibroblast growth factors” (Yeda Research and Development Co., Ltd., priority 1994, dated 1996).

Columns and labels:
FGFR2(IIIb) = assay: Chemical cross-linking of 125I-FGF to soluble FGFR2(IIIb); format: binding, murine; conditions: with and without excess unlabelled FGF
Description: (§1) Binding of FGF proteins to different FGF receptors are determined in this example, by measuring the degree of competition for binding to different types of FGF-receptor proteins between a radioiodinated FGF protein and various unlabelled proteins, or by the direct binding of radioiodinated FGF's to various receptor proteins. Binding studies are confirmed by chemical cross-linking of the radioiodinated FGF to soluble receptors in the presence and absence of excess unlabelled FGF.
(§2) Soluble FGF receptor proteins are constructed by cloning of the extracellular region of murine FGF receptor 1 (FGFR-1; flg), FGF receptor 2 (FGFR-2; bek) or the KGF receptor (FGFR(IIIb); K-sam) into the alkaline phosphatase-tag expression vector, which encodes for a secreted form of placental alkaline phosphatase (AP). The FGF receptor alkaline phosphatase (FRAP) plasmids are cotransfected into NIH 3T3 cells by electroporation with a selectable neomycin resistance gene. Clonies are selected in G418 (600 μg/ml) and screened for secreted AP enzyme activity in the conditioned medium. Clones of each receptor which produced a high level of AP activity (2 to 4 A405 units/min/ml) are then used to produce conditioned medium for binding assays.
(§3) Chemical cross-linking experiments are carried out at room temperature in a volume of 20 μl in siliconized 0.5-ml microcentrifuge tubes. The reaction mixtures contain FGF receptor immobilized to anti-AP monoclonal antibodies coupled to protein A Sepharose®, 200 ng/ml heparin, 2 ng/ml^125 I-bFGF, 20 mM phosphate buffer (pH 7.4), and 140 mM NaCl. After a 90 minute incubation, […] of a solution of disuccinimidyl suberate (Pierce) dissolved in dimethyl sulfoxide is added to give a final concentration of 0.15 mM, and the mixture incubated for an additional 30 minutes. The reaction is quenched by addition of […] of 200 mM ethanolamine-HCl (pH 8.0) for 30 min. The reaction mixtures are diluted 1:1 with 2× SDS-polyacrylamide gel electrophoresis loading buffer and electrophoresed on an SDS-12% polyacrylamide gel. Cross-linked FGF to the FGF receptor are detected by autoradiography on Kodak XAR film.

[1] = system: bovine vascular endothelial cells derived from adult aortic arch; assay: Mitogenic activity, endothelial cell proliferation assay; format: cell-based; conditions: 5 days in culture
Description: The mitogenic activity of FGF-2, FGF-2LI and FGF-2LA are determined using bovine vascular endothelial cells derived from adult aortic arch as previously described (Gospardarowicz, D., et al., Proc. Nat. Acad. Sci. 81: 6963-6967 (1984)). Briefly, cells are seeded at an initial density of 0.8×10^4 cells per 24-well plate in 0.5 ml Dulbecco's modified Eagle's medium (DMEM) containing 10% calf serum (Hyclone, Logan, Utah) supplemented with penicillin (100 units/ml), streptomycin (100 ug/ml) and L-glutamine (2 mM). Two hours after plating, 20 ul aliquots of serial dilutions of FGF-2 and the mutants in DMEM are added. Inhibition of FGF-2-stimulated growth was determined at a fixed concentration of FGF-2, while that of the mutant proteins is varied. After 5 days in culture, duplicate plates are trypsinized and cell densities determined by cell counting in a Coulter counter. Determinations are conducted in duplicate.

FGFR1 = assay: Chemical cross-linking of 125I-FGF to soluble FGFR1; format: binding, murine; conditions: with and without excess unlabelled FGF
Description: as §1, §2, §3

ABAE cells = assay: In vitro angiogenesis: capillary-like tube formation by ABAE cells on collagen gel; format: cell-based, bovine; conditions: ABAE cells on type I collagen gel, 48 hours; compared with wild-type FGF-2
Description: In vitro anglogenesis evaluations are made by observing whether the mutants induce capillary-like structures in ABAE cells cultured on a 3-dimensionalcollagen gel. Three-dimensional collagen gel plates (24-well) are prepared by adding 0.5 ml chilled solution of 0.7 mg/ml rat-tail type I collagen (Becton Dickinson Labwares, Bedford, Mass.) containing DMEM and adjusting to neutral pH with NaHCO3 to each well. After formation of collagen gel (about 1-2 mm thickness), ABAE cells are seeded at 50,000 cells/well. The cultures are maintained at 37° C. in DMEM containing 10% calf serum (Hyclone, Logan, Utah) supplemented with penicillin (100 units/ml), streptomycin (100 μg/ml) and L-glutamine (2 mM) until the cultures reach confluency, usually in 5 days by which time the cells form a monolayer on the gel. The medium is then replaced with fresh medium containing different concentrations of FGF-2 or mutants. […]
The abundance of the capillary-like structures formed by ABAE cells is analyzed by using a Kontron IBAS Image Analyzer assisted with a Hamamatsu C2400 video camera and a Zeiss Axioshop microscope. […] The extent of in vitro angiogenesis is then measured as a percentage of the white areas. […] Three to four areas of each well are examined by image analysis and the mean value and standard deviation are determined. […]

neovascularization = assay: In vivo angiogenesis, rabbit ear chamber model
Description: In an in vivo model of angiogenesis, FGF-2LI is evaluated using the rabbit ear chamber system modified and improved by Howden, G. F., and Silver, I. A., (Int. Endodontic J. 13: 3-16 (1980)), observing the growth factor-induced neovascularization, or its inhibition, by modified growth factors or other reagents.
Rabbits are sedated using 50-70 mg/kg ketamine and 10 mg/kg xylozine administered intramuscularly. The ears are shaved with an electric hair clipper and cleaned with water, followed by Betadine®. To minimize the risk of infection, the rabbits are given 20,000 units/kg benzathine penicillin intramuscularly prior to insertion of the ear chambers. The chamber is inserted into an approximately 0.75 cm area which is not crossed by any major vessels. During the course of the experiments, observations or any minor handling of ear chambers of the animals is done by sedating the animal using the intramuscular administration of a combination of Butorphanol® and acepromazine at levels of 1 mg/kg each. FGF-2 or FGF-2LI bound to heparin-Sepharose® beads in a controlled-release alginate capsule is contained in one of the ear chambers and the other is used as a control containing only the heparin-Sepharose® alginate capsule vehicle. Thus, the effect of the growth factors and the controlled-release capsule alone can be observed simultaneously in the same animal. […] The animals are kept for 4 to 6 weeks and neovascularization is observed visually and recorded photographically at weekly intervals.
The criteria for evaluation of the degree of neovascularization using this procedure is set out below.

Substance: FGF-2LA: human FGF-2 with loop residues 118-122 replaced by Lys-Lys-His-Ala-Glu-Lys-His from bovine FGF-1 (SEQ ID NO 16) (KKHAEKH; printed: Lys-Lys-His-Ala-Glu-Lys-His)
- Cross-linking to FGFR2(IIIb) (FGFR2(IIIb)): bind
- Mitogenic potency compared with wild-type factor [1]: as potent as the wild-type factor
- Cross-linking to FGFR1 (FGFR1): bind
- Induction of tube formation (capillary-like structures) (ABAE cells): comparable with the wildtype

Substance: FGF-2LI: human FGF-2 with loop residues 118-122 replaced by Ala-Gln-Phe-Pro-Asn from human interleukin-1β (SEQ ID NO 15)
- Cross-linking to FGFR2(IIIb) (FGFR2(IIIb)): excluded from binding
- Mitogenic potency, times less potent than FGF-2 [1]: 5 to 10 times
- Angiogenesis at 400 ng/chamber (neovascularization; 400 ng/chamber): greatly stimulates formation of capillaries and larger vessels
- Concentration range over which stimulatory activity is observed (neovascularization; rabbit ear chamber): 0.1-400 ng/chamber
- Potential to induce angiogenesis (neovascularization) (neovascularization; rabbit ear chamber, controlled-release alginate capsule): superior to FGF-2
- Vessel formation in the chamber (neovascularization; rabbit ear chamber, versus control chambers): stimulate large vessel formation
- Cross-linking to FGFR1 (FGFR1): bind
- Induction of tube formation (capillary-like structures) (ABAE cells): much less than that by wild-type FGF-2
